We go through five compounds from patent publication US20090104119A1, “Dendrimer Based Compositions And Methods Of Using The Same” (priority 2004, published 2009).

Data set [1] deals with KB cells. Briefly: Inhibition of cell growth by XTT assay. The data set is classed as cell-based, human. To be noted: for inhibition of cell growth, XTT: 1, 2 or 3 days. The procedure:
(§1) Cell culture and treatment.
Evaluation of dendrimer cytotoxicity.
Because the binding of the conjugate to KB cells reaches maximal uptake within 1 h (Quintana et al, 2002. Pharmaceutical Research 19: 1310-1316.), the effect of the G5-FI-FA-MTX on cell growth was initially tested by pre-incubation of cells with the conjugate for 1 h, followed by incubation in a drug-free medium for 5 d. […] When the cells were pre-incubated with dendrimers for 4 h, there was a modest decrease of about 10% in cell growth as determined by XTT assay. The cytotoxicity measurements were therefore done by incubation with the dendrimer for a minimum of 24 h, a pre-incubation time period shown to induce significant cytotoxicity.
The inhibition of cell growth induced by the conjugates was also tested by XTT assay which is based on the conversion of XTT to formazan by the active mitochondria of live cells (See, e.g., Roehm et al, J Immunol Methods 142, 257 (1991)).
As free FA blocks the uptake of the dendrimers as well as rescues cells from MTX-induced cytotoxicity, the effect of pre-incubation of cells with excess FA on the anti-proliferative effect of G5-FITC-FA-MTX was tested. KB cells were exposed to different concentrations of the conjugate or free MTX for 24 h in the absence or presence of 50 μM FA. The incubation medium was removed, the cells were rinsed and incubated with fresh medium for 5 additional days in the absence of the drugs, and the XTT assay was performed (See, e.g., FIG. 24, □, ▪, represents cells treated with MTX; Δ, ▴, represents cells treated with G5-FITC-FA-MTX).
The anti-proliferative effect of the MTX-conjugates was compared to conjugates that lacked either the FA or the FITC molecule. KB cells were incubated with 30 nM of the conjugates (=150 nM effective MTX concentration) for 24 h and the incubation medium was removed. The cells were rinsed and incubated for an additional 5 d in fresh medium in the absence of the drugs, and the XTT assay was performed.

For data set [2], the system named is KB cells. Put plainly: Inhibition of cell growth by total cell protein. To be noted: 150 nM FA with 150 nM MTX, 24 h, then 6 d fresh medium; total cell protein. The procedure: Cell culture and treatment. KB cells were maintained in folate-free medium containing 10% serum (See, e.g., Quintana et al, Pharm. Res. 19, 1310 (2002)) to provide extracellular FA similar to that found in human serum. Cells were plated in 12-well plates for uptake studies, in 24-well plates for cell growth analysis, and in 96-well plates for XTT assay. Cells were rinsed with FA-free medium containing dialyzed serum and incubated at 37° C. with dendrimer-drug conjugates for the indicated time periods and concentrations. KB cells were also maintained in RPMI medium containing 2 μM FA to obtain cells which express low FAR.
Evaluation of dendrimer cytotoxicity. Cell growth was determined by assay of the total protein in lysates of treated cells using a bicinchoninic acid reagent (PIERCE, and by XTT assay, using a kit from Roche.
Time course and dose dependent inhibition of cell growth. Previous studies have shown that MTX-induced cytotoxicity is detectable in vitro only if the medium is completely deprived of FA (See, e.g., Sobrero & Bertino, Int. J. Cell Cloning 4, 51 (1986)). The effect of the trifunctional dendrimers on cell growth was tested in cells incubated in a FA-deficient medium. Cells were treated with 300 nM conjugates (equivalent of 1500 nM MTX) or 1500 nM free MTX for 1-4 days, and cell proliferation was determined by estimation of cellular protein content. Cells were treated for 2 days with different concentrations of the conjugates or free MTX (the conjugate concentration is given as MTX equivalents, with 5 MTX per dendrimer molecule). KB cells which express high and low FAR were incubated with 30 nM of the dendrimers for 1 hr at 37° C., rinsed, and the fluorescence of cells was determined by flow cytometric analysis (See. e.g., FIG. 21, left panel).
KB cells were treated with 150 or 500 nM MTX in the presence or absence of equimolar concentrations of free FA for 24 h. […] The cells were rinsed to remove the drugs and incubated with fresh medium for an additional 6 d, and total cell protein was determined.

For data set [3] the following is noted: mouse, in vivo. The text has this: Recipient animal and tumor model. Immunodeficient, 6- to 8-weekold athymic nude female mice [Sim:(NCr) nu/nu fisol] were purchased from Simonsen Laboratories, Inc. (Gilroy, Calif.). Five- to 6-week-old Fox Chase severe combined immunodeficient (SCID; CB-17/lcrCrl-scidBR) female mice were purchased from the Charles River Laboratories (Wilmington, Mass.) and housed in a specific pathogen-free animal facility at the University of Michigan Medical Center in accordance with the regulations of the University's Committee on the Use and Care of Animals as well as with federal guidelines, including the Principles of Laboratory Animal Care. Animals were fed ad libitum with Laboratory Autoclavable Rodent Diet 5010 (PMI Nutrition International, St. Louis, Mo.). Three weeks before tumor cell injection, the food was changed to a folate-deficient diet (TestDiet, Richmond, Ind.). For urine and feces collection, animals were housed in metabolic rodent cages (Nalgene, Rochester, N.Y.).
Tumor cell line. The KB human cell line, which overexpresses the folate receptor (See, e.g., Turek et al, J Cell Sci 106, 423 (1993)), was purchased from the American Type Tissue Collection (Manassas, Va.) and maintained in vitro at 37° C., 5% CO2 in folate-deficient RPMI 1640 supplemented with penicillin (100 units/mL), streptomycin (100 μg/mL), and 10% heat-inactivated fetal bovine serum. Before injection in the mice, the cells were harvested with trypsin-EDTA solution, washed, and resuspended in PBS. The cell suspension (5×10^6 cells in 0.2 mL) was injected s.c. into one flank of each mouse using a 30-gauge needle. In the biodistribution studies, the tumors were allowed to grow for 2 weeks until reaching ˜0.9 cm^3 in volume. The formula chosen to compute tumor volume was for a standard volume of an ellipsoid, where V= 4/3π (½ length×½ width×½ depth). With an assumption that width equals depth and […], the formula used was V=½×length×width^2. Targeted drug delivery using conjugate injections was started on the fourth day after implantation of the KB cells.
Biodistribution and excretion of tritiated dendrimer. […] Both tritiumlabeled conjugates were delivered at equimolar concentrations of the modified dendrimer. At 5 minutes, 2 hours, 1 day, 4 days, and 7 days postinjection, the animals were euthanized and samples of tumor, heart, lung, liver, spleen, pancreas, kidney, and brain were taken. […] The mice were euthanized at 5 minutes, 1 day, and 4 days following injection, and tissues were harvested as above. Blood was collected at each time point via cardiac puncture. Each group included three to five mice. Urine and feces samples were collected at 2, 4, 8 and 12 hours and 1, 2, 3, and 4 days.
Radioactive tissue samples were prepared as described in Nigavekar et al, Pharm Res 21, 476 (2004). The tritium content was measured in a liquid scintillation counter (LS 6500, Beckman Coulter, Fullerton, Calif.). The values of measured radioactivity were adjusted for the counting efficiency of the instrument and used to derive radioactivity (1 μCi=2.22×10^6 dpm) per sample. These values were then normalized by tissue weight and the specific radioactivity of the conjugates was reported as a percentage of the injected dosage (% ID/g). The excreted radioactivity (dendrimer) via urine and feces was reported as a percentage of the injected dosage (% ID).
Biodistribution of tritiated dendrimers. […] The mice were maintained on a folate-deficient diet for the duration of the experiment to minimize the circulating levels of folic acid (See, e.g., Mathias et al., J Nucl Med 29, 1579 (1998)). […] Mice were evaluated at various time points (5 minutes to 7 days) following i.v. administration of the conjugates.

In data set [4] the test system is KB cells which express a high cell surface FA receptor (FAR). Put plainly: Cellular uptake/binding of dendrimers in high-FAR KB cells, flow cytometry. The data set is classed as cell-based, human. As for the experimental part:
as §1
(§2) Flow Cytometry and Confocal Microscopy. The standard fluorescence of the dendrimer solutions was quantified using a Beckman spectrofluorimeter. For flow cytometric analysis of the uptake of the targeted polymer, cells were trypsinized and suspended in PBS containing 0.1% bovine serum albumin (PBSB) and analyzed using a Becton Dickinson FACScan analyzer. The FL1-fluorescence of 10,000 cells was measured and the mean fluorescence of gated viable cells was quantified. Confocal microscopic analysis was performed in cells plated on a glass cover-slip, using a Carl Ziess confocal microscope. Fluorescence and differential interference contrast (DIC) images were collected simultaneously using an argon laser, using the appropriate filters for FITC.
The cellular uptake of the dendrimers was measured in KB cells which express a high cell surface FA receptor (FAR). The FA-conjugated dendrimers bound to the cells in a dose-dependent fashion, with 50% binding at 10-15 nM for both the G5-FITC-FA and G5-FITC-FA-MTX, while the control dendrimer G5-FITC was not detected in the KB cells (See, e.g., FIG. 18A). Identical binding curves were obtained for the G5-FITC-FA and G5-FITC-FA-MTX when the fluorescence obtained was normalized for the quenching observed in the standard solutions of the dendrimers (See e.g., FIG. 18B).
(§3) The effect of free FA on the uptake of the dendrimers was tested in KB cells that express both high and low FAR. The binding of the conjugates to the low FAR-expressing KB cells was 30% of that of the high FAR-expressing cells for both the G5-FITC-FA and G5-FITC-FA-MTX (See, for e.g., FIG. 19, left panel). […] The binding and internalization of the dendrimers to KB cells was assessed by confocal microscopy. KB cells were incubated with 250 nM of the indicated dendrimers for 24 hours and confocal images were taken. Conjugates containing the targeting molecule FA internalized into KB cells within 24 h (See, e.g., FIG. 20).
A general note: Flow cytometry measures light scatter and fluorescence of single cells or particles in a stream.

The next data set concerns s.c. human KB xenografts. Briefly: Targeted drug delivery, tumor growth and survival in SCID mice with KB xenografts. The data set is classed as in vivo, SCID CB-17 mice. The conditions noted are these: first trial, up to 15 injections; cumulative 5.0 mg/kg methotrexate equivalents or equimolar dendrimer. The procedure:
Recipient animal and tumor model.
Delivery of targeted nanoparticle therapeutic. Twice weekly, SCID mice with s.c. KB xenografts, starting on day 4 after tumor implantation, received via the tail vein an injection of either targeted or nontargeted conjugate containing methotrexate, a conjugate without methotrexate, free methotrexate, or saline as a control. The compounds were delivered in a 0.2 mL volume of saline per 20 g of mouse. The single dose of methotrexate delivered each time equaled 0.33 mg/kg. The higher doses of 1.67 and 3.33 mg/kg free methotrexate were also tested. The conjugates were delivered at equimolar concentration of methotrexate calculated based on the number of methotrexate molecules present in a nanoparticle. The conjugate without methotrexate was delivered at equimolar concentration of dendrimer. In the initial trial, six groups of mice with five mice in each group received up to 15 injections. In the follow-up trial, mice received up to 28 injections dependent on their survival. The body weights of the mice were monitored throughout the experiment as an indication of adverse effects of the drug. Histopathology of multiple organs was done at the termination of each trial and each time mouse had to be euthanized due to toxic effects or tumor burden. Tissues from lung, heart, liver, pancreas, spleen, kidney, and tumor were analyzed. Additionally, cells were isolated from tumors, stained with targeted fluorescein-labeled conjugate, and tested for the presence of folic acid receptors using flow cytometer.
Targeted drug delivery to tumor cells through the folate receptor. The efficacy of different doses of conjugates was tested on SCID CB-17 mice bearing s.c. human KB xenografts and was compared with equivalent and higher doses of free methotrexate. Mice were maintained on the folic acid-deficient diet for 3 weeks before injection of the KB tumor cells to achieve circulating levels of folic acid that approach those in human serum and to prevent down-regulation of folate receptors on tumor xenografts (See, Mathias et al., J Nucl Med 29, 1579 (1998)). Six groups of SCID mice with five mice in each group were injected s.c. on one flank with 5×10^6 KB cells in 0.2 mL PBS suspension. The highest total dose of G5-FI-FA-MTX therapeutic used equals 55.0 mg/kg and is equivalent to a 5.0 mg/kg total cumulative dose of free methotrexate (FIG. 29). The therapeutic dose of the conjugate was compared with three cumulative doses of free methotrexate equivalent to 33.3, 21.7, and 5.0 mg/kg accumulated in 10 to 15 injections based on mouse survival. Saline and the conjugate without methotrexate (G5-FI-FA) were used as controls.

Data set [5] relates to low FAR-expressing KB cells. Briefly: Cellular uptake/binding of dendrimers in low-FAR KB cells, flow cytometry. The data set is classed as cell-based, human. The procedure:
as §1, §2, §3
Time course and dose dependent inhibition of cell growth.

Where [6] appears, read: 50 μM FA, 24 h, then 5 days drug-free, XTT.

Regarding `Nc1nc2ncc(CNc3ccc(C(=O)N[C@@H](CCC(=O)O)C(=O)O)cc3)nc2c(=O)[nH]1` [FA, Folic Acid, reference compound], in the data set on KB cells [1] (setting [6]), the “effect of excess free FA on growth inhibition by conjugate or free MTX” value was “blocked growth inhibition” and the “increase of cell growth above control cells” value is listed as 20%. For the same compound, the “reversal of MTX-induced growth-arrest by FA” value in the data set with KB cells [2] is reported as “almost completely reversed”.

As for G5-(Ac)50-(Ac-3H)54 [G5-^3H], in data set [3], the amount in feces result is listed as “very low amounts”; the “concentration in KB tumor” value was “decreased rapidly”; the concentration in liver result is listed as “decreased rapidly”; the “time of excretion, primarily through the kidney” value was ≤ 24 h.

Regarding G5-(Ac)50-(Ac-3H)54-(FA)6 [G5-^3H-FA], in data set [3], the amount in feces result is “very low amounts”, the “concentration in KB tumor” value was “increases over the first 4 days”, the concentration in liver entry is listed as “increases over the first 4 days” and the “cumulative clearance compared with G5-3H” value is “lower”. Also, the “time of excretion, primarily through the kidney” value in data set [3] was ≤ 24 h.

For G5-(Ac)82-(FITC)5 [G5-FITC], in data set [4] (control dendrimer without FA), the “detection of dendrimer in KB cells” value is recorded as “not detected”. In the data set with KB cells [1], the “inhibition of cell growth, XTT” value is on record as “not growth-inhibitory”.

On to G5-(Ac)82-(FITC)5-(FA)5 [G5-FITC-FA], for which the “effect of free FA on uptake, high-FAR expressing cells” value in data set [4] (50 μM FA, dendrimer 30 nM) is given as “completely blocked”. Moreover, the “effect on tumor growth” value with s.c. human KB xenografts is listed as “no therapeutic effect”. The “binding to low FAR-expressing KB cells relative to high FAR-expressing cells” value in data set [5] turned out to be 30%. For the same compound, the “effect of free FA on uptake, low-FAR expressing cells” value in data set [5] (50 μM FA, dendrimer 30 nM) was “completely blocked”. Besides, the “inhibition of cell growth, XTT” value with KB cells [1] is “not growth-inhibitory”.
